According to ChEMBL document CHEMBL4665665, “4-Aryl Pyrrolidines as Novel Orally Efficacious Antimalarial Agents. Part 2: 2-Aryl-N-(4-arylpyrrolidin-3-yl)acetamides” (ACS Med Chem Lett, 2019):
The source made the active and inactive calls. The calls are words filed in the database; no cut-off is given here.

What was measured:
Cytochrome P450 2D6 = Cytochrome P450 2D6 (Homo sapiens, UniProt P10635); assay: Inhibition of recombinant human CYP2D6 expressed in baculovirus infected insect cells using dextromethorphan as substrate incubated for 30 mins in presence of NADPH-regenerating system by fluorescence based assay; assay type: ADME
[1] = target: Beta-secretase 1 (Homo sapiens) (UniProt P56817); assay: Inhibition of recombinant human BACE1 using Mca-SEVNLDAEFRK(Dnp)RR-NH2 fluorogenic peptide as substrate incubated for 60 mis by fluorescence based assay; settings: time 60.0 min
Plasmodium chabaudi [2] = assay: Antimalarial activity against Plasmodium chabaudi ASS infected in NIH mouse assessed as inhibition of parasitemia at 10 mg/kg, po qd for 4 days starting from 4 hrs post-parasite inoculation and measured at 24 hrs after last-drug treatment by Peter's 4-day suppressive test relative to control; assay type: functional; settings: 96 h
[3] = Plasma concentration in NIH mouse infected with Plasmodium chabaudi ASS at 30 mg/kg, po qd for 4 days starting from 4 hrs post-parasite inoculation and measured at 24 hrs post-dosing on day 4 by LC/MS analysis; assay type: ADME, organism-based; settings: dose 30 mg/kg/day, time 4 day
Plasmodium chabaudi [4] = assay: Antimalarial activity against Plasmodium chabaudi ASS infected in NIH mouse assessed as inhibition of parasitemia at 30 mg/kg, po qd for 4 days starting from 4 hrs post-parasite inoculation and measured at 24 hrs after last-drug treatment by Peter's 4-day suppressive test relative to control; assay type: functional; settings: 96 h
HepG2 [5] = assay: Cytotoxicity against human HepG2 cells assessed as cell viability at 50 uM incubated for 72 hrs by PrestoBlue cell viability reagent based assay; settings: hepg2, 72 h
[6] = Plasma concentration in NIH mouse infected with Plasmodium chabaudi ASS at 10 mg/kg, po qd for 4 days starting from 4 hrs post-parasite inoculation and measured at 6 hrs post-dosing on day 4 by LC/MS analysis; assay type: ADME, organism-based; settings: dose 10 mg/kg/day, time 4 day
[7] = Apparent volume of distribution in KM mouse at 2 mg/kg, iv administered as cassette dosing measured up to 24 hrs by LC/MS analysis; assay type: ADME, organism-based; settings: in vivo, read-out: Vz
[8] = Plasma concentration in NIH mouse infected with Plasmodium chabaudi ASS at 30 mg/kg, po qd for 4 days starting from 4 hrs post-parasite inoculation and measured at 6 hrs post-dosing on day 4 by LC/MS analysis; assay type: ADME, organism-based; settings: dose 30 mg/kg/day, time 4 day
Cytochrome P450 1A2 = target: T1, Cytochrome P450 1A2 (Homo sapiens, UniProt P05177); assay: Inhibition of recombinant human CYP1A2 expressed in baculovirus infected insect cells using phenacetin as substrate incubated for 30 mins in presence of NADPH-regenerating system by fluorescence based assay; assay type: ADME
T1 sequence (P05177 whole entry): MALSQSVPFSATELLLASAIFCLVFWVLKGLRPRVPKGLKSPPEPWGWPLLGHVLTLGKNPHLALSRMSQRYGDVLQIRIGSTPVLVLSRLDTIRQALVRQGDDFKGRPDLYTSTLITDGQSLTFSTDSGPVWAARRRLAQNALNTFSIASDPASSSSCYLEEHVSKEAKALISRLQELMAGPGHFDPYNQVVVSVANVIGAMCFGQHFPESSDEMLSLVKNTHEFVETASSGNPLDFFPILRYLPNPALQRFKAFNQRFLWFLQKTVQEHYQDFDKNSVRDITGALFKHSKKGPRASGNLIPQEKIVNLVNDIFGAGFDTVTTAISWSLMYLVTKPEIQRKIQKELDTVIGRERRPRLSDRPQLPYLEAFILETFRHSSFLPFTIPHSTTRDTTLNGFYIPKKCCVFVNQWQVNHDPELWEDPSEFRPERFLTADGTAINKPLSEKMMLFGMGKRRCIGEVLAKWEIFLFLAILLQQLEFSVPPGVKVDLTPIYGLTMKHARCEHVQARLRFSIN

[9] = Plasma concentration in NIH mouse infected with Plasmodium chabaudi ASS at 3 mg/kg, po qd for 4 days starting from 4 hrs post-parasite inoculation and measured at 1 hr post-dosing on day 4 by LC/MS analysis; assay type: ADME, organism-based; settings: dose 3 mg/kg/day, time 4 day
Plasmodium chabaudi [10] = assay: Antimalarial activity against Plasmodium chabaudi ASS infected in NIH mouse assessed as inhibition of parasitemia at 3 mg/kg, po qd for 4 days starting from 4 hrs post-parasite inoculation and measured at 24 hrs after last-drug treatment by Peter's 4-day suppressive test relative to control; assay type: functional; settings: 96 h
[11] = Half life in KM mouse at 2 mg/kg, iv administered as cassette dosing measured up to 24 hrs by LC/MS analysis; assay type: ADME, organism-based; settings: in vivo
Plasmodium chabaudi [12] = assay: Antimalarial activity against Plasmodium chabaudi ASS infected po dosed NIH mouse assessed as inhibition of parasitemia administered oce daily for 4 days starting from 4 hrs post parasite-inoculation and measured at 24 hrs post-last treatment by Peter's 4-day suppressive test; assay type: functional; settings: 96 h
[13] = Plasma concentration in NIH mouse infected with Plasmodium chabaudi ASS at 10 mg/kg, po qd for 4 days starting from 4 hrs post-parasite inoculation and measured at 24 hrs post-dosing on day 4 by LC/MS analysis; assay type: ADME, organism-based; settings: dose 10 mg/kg/day, time 4 day
[14] = Apparent clearance in KM mouse at 2 mg/kg, iv administered as cassette dosing measured up to 24 hrs by LC/MS analysis; assay type: ADME, organism-based; settings: in vivo
[15] = Plasma concentration in NIH mouse infected with Plasmodium chabaudi ASS at 10 mg/kg, po qd for 4 days starting from 4 hrs post-parasite inoculation and measured at 1 hr post-dosing on day 4 by LC/MS analysis; assay type: ADME, organism-based; settings: dose 10 mg/kg/day, time 4 day
[16] = Plasma concentration in NIH mouse infected with Plasmodium chabaudi ASS at 30 mg/kg, po qd for 4 days starting from 4 hrs post-parasite inoculation and measured at 1 hr post-dosing on day 4 by LC/MS analysis; assay type: ADME, organism-based; settings: dose 30 mg/kg/day, time 4 day
Cytochrome P450 3A4 = Cytochrome P450 3A4 (Homo sapiens, UniProt P08684); assay: Inhibition of recombinant human CYP3A4 expressed in baculovirus infected insect cells using midazolam as substrate incubated for 30 mins in presence of NADPH-regenerating system by fluorescence based assay; assay type: ADME
[17] = Plasma concentration in NIH mouse infected with Plasmodium chabaudi ASS at 3 mg/kg, po qd for 4 days starting from 4 hrs post-parasite inoculation and measured at 6 hrs post-dosing on day 4 by LC/MS analysis; assay type: ADME, organism-based; settings: dose 3 mg/kg/day, time 4 day
[18] = target: Plasmepsin II (Plasmodium falciparum) (UniProt P46925); assay: Inhibition of Plasmodium falciparum plasmepsin 2 using PM-2 peptide substrate incubated for 60 mis by fluorescence based assay; settings: time 60.0 min
HepG2 [19] = assay: Cytotoxicity against human HepG2 cells assessed as cell viability at 5 uM incubated for 72 hrs by PrestoBlue cell viability reagent based assay; settings: hepg2, 72 h
Plasmodium falciparum [20] = assay: Antimalarial activity against multidrug resistant Plasmodium falciparum Dd2 incubated for 72 hrs by SYBR Green-1 dye based fluorescence assay; assay type: functional, organism-based; settings: Dd2, 72 h
Plasmodium falciparum [21] = assay: Inhibition of Plasmodium falciparum plasmepsin 4 using PM-2 peptide substrate incubated for 60 mis by fluorescence based assay; settings: time 60.0 min
Cytochrome P450 2C9 = Cytochrome P450 2C9 (Homo sapiens, UniProt P11712); assay: Inhibition of recombinant human CYP2C9 expressed in baculovirus infected insect cells using tolbutamide as substrate incubated for 30 mins in presence of NADPH-regenerating system by fluorescence based assay; assay type: ADME
Cytochrome P450 2C19 = Cytochrome P450 2C19 (Homo sapiens, UniProt P33261); assay: Inhibition of recombinant human CYP2C19 expressed in baculovirus infected insect cells using s-mephenytoin as substrate incubated for 30 mins in presence of NADPH-regenerating system by fluorescence based assay; assay type: ADME
Plasmodium falciparum [22] = assay: Antimalarial activity against CQ-sensitive Plasmodium falciparum 3D7 incubated for 72 hrs by SYBR Green-1 dye based fluorescence assay; assay type: functional, organism-based; settings: Plasmodium falciparum, 3D7, 72 h
[23] = Plasma concentration in NIH mouse infected with Plasmodium chabaudi ASS at 3 mg/kg, po qd for 4 days starting from 4 hrs post-parasite inoculation and measured at 24 hrs post-dosing on day 4 by LC/MS analysis; assay type: ADME, organism-based; settings: dose 3 mg/kg/day, time 4 day

Plasmepsin II (Plasmodium falciparum), sequence (P46925 125-453 limits assumed): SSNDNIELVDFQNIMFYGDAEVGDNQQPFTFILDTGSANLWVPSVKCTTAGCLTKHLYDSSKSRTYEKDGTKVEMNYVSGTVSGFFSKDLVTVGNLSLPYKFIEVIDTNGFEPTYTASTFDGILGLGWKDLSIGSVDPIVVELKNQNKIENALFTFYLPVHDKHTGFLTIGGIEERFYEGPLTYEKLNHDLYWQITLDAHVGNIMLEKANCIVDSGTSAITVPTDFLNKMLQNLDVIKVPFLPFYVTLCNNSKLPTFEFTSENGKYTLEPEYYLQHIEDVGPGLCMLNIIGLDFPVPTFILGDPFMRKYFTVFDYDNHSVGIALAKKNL
Beta-secretase 1 (Homo sapiens), sequence (P56817 whole entry): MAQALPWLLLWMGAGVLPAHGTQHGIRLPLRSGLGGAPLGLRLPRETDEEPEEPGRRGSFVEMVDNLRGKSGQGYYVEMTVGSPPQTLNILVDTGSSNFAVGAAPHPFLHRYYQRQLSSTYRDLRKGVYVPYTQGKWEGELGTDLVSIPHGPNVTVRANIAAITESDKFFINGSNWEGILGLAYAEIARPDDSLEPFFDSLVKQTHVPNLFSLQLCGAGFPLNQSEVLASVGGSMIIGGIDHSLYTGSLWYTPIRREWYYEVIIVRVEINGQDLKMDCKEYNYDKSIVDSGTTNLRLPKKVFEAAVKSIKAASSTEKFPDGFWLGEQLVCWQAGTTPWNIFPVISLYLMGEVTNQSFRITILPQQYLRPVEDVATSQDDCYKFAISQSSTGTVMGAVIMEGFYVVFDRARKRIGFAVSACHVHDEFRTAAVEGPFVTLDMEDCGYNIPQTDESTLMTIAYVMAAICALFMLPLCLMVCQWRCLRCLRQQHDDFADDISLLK
Cytochrome P450 2C19, sequence (P33261 whole entry): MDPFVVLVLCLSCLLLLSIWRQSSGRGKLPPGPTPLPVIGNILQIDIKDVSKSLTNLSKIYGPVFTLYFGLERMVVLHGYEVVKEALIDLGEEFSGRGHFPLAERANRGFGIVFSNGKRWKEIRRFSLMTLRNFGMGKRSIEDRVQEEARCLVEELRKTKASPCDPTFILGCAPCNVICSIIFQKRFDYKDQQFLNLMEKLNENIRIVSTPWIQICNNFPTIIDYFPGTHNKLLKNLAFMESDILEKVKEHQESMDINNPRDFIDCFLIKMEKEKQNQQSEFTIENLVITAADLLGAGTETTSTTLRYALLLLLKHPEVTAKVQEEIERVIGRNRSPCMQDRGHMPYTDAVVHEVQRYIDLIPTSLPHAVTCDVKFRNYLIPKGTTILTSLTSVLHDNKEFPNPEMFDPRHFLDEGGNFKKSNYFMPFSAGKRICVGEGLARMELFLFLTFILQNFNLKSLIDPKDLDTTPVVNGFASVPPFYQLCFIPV
Cytochrome P450 2C9, sequence (P11712 whole entry): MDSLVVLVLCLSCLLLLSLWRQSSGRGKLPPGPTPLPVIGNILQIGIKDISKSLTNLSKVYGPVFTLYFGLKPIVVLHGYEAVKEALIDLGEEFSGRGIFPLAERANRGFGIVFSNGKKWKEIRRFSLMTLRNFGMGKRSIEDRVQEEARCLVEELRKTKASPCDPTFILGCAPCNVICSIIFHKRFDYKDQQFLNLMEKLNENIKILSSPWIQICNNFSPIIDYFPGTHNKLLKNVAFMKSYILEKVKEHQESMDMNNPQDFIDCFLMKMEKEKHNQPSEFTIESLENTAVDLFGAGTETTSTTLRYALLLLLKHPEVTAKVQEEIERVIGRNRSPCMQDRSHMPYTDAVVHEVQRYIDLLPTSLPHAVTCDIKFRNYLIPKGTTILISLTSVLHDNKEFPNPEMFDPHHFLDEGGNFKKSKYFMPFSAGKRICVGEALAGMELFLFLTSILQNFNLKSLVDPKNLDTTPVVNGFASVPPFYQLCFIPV
Cytochrome P450 3A4, sequence (P08684 whole entry): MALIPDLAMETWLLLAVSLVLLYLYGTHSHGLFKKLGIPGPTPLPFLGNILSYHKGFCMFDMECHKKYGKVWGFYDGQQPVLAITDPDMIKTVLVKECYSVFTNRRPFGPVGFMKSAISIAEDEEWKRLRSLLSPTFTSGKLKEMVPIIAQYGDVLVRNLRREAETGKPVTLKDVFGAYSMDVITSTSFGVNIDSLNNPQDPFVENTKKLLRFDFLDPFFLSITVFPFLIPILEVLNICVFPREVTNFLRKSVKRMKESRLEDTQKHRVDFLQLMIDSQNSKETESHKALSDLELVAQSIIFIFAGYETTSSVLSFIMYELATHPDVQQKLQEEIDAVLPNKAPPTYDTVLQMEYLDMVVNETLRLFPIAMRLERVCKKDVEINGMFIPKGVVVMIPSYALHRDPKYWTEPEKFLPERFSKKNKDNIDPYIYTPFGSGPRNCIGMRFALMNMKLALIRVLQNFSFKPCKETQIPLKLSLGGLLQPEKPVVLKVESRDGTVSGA
Cytochrome P450 2D6, sequence (P10635 whole entry): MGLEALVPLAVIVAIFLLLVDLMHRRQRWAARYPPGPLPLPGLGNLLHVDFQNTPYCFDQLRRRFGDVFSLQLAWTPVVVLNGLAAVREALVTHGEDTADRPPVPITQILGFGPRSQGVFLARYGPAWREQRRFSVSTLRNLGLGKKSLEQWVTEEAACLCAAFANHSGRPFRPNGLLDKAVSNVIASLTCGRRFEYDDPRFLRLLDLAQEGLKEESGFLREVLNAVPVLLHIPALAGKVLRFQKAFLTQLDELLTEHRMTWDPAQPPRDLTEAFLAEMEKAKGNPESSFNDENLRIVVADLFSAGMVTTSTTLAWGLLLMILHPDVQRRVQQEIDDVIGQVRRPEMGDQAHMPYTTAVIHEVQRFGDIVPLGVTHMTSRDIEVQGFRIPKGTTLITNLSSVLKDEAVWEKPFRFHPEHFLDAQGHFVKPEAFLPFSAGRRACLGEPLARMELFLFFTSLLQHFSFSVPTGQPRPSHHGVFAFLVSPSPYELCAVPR

## CN(C)c1ccc(CC(=O)N[C@@H]2CNC[C@H]2c2ccc(C(C)(F)F)cc2)cc1
Cytochrome P450 2D6
  IC50: 40.6 µM
[1]
  inhibition: inactive
Plasmodium chabaudi [2]
  inhibition in vivo at 10 mg/kg/day: 94.1%
[3]
  concentration at 96 h: 28.5 nM
Plasmodium chabaudi [4]
  inhibition in vivo at 30 mg/kg/day: 99.9%
HepG2 [5]
  Activity: Non-Toxic
[6]
  concentration at 96 h: 48.9 nM
[7]
  Vd: 2.1 L/kg
[8]
  concentration at 96 h: 1150 nM
Cytochrome P450 1A2
  IC50: > 100 µM
[9]
  concentration at 96 h: 114 nM
Plasmodium chabaudi [10]
  inhibition in vivo at 3 mg/kg/day: 34%
[11]
  half-life: 2.7 h
Plasmodium chabaudi [12]
  ED90: < 10 mg/kg/day
  ED99: 30 mg/kg/day
[13]
  concentration at 96 h: 1.7 nM
[14]
  clearance: 13.8 mL/min/kg
[15]
  concentration at 96 h: 389 nM
[16]
  concentration at 96 h: 1310 nM
Cytochrome P450 3A4
  IC50: 2.5 µM
[17]
  concentration at 96 h: 34.1 nM
[18]
  inhibition: inactive
HepG2 [19]
  Activity: Non-Toxic
Plasmodium falciparum [20]
  IC50: 0.053 µM
Plasmodium falciparum [21]
  inhibition: inactive
Cytochrome P450 2C9
  IC50: > 100 µM
Cytochrome P450 2C19
  IC50: 49.7 µM
Plasmodium falciparum [22]
  IC50: 0.051 µM
[23]
  concentration at 96 h: 6.6 nM
